Assay results from patent publication US20040063651A1, “Remedies for hepatitis c” (priority 2000, published 2004).

Key:
HCV RNA polymerase = target: T1, HCV RNA polymerase (Hepatitis C virus genotype 1b, UniProt Q9WMX2); assay: Inhibitory effect on HCV RNA polymerase activity ([α-32P]UTP incorporation, poly(A)/oligo(U)); type: biochemical; details: 10 uM UTP, 30° C. for 30 minutes; read-out: 50% inhibitory concentration for HCV RNA polymerase
T1 construct: Expression and purification of HCV RNA polymerase were performed in accordance with known processes; made in house
T1 sequence (Q9WMX2 2420-3010): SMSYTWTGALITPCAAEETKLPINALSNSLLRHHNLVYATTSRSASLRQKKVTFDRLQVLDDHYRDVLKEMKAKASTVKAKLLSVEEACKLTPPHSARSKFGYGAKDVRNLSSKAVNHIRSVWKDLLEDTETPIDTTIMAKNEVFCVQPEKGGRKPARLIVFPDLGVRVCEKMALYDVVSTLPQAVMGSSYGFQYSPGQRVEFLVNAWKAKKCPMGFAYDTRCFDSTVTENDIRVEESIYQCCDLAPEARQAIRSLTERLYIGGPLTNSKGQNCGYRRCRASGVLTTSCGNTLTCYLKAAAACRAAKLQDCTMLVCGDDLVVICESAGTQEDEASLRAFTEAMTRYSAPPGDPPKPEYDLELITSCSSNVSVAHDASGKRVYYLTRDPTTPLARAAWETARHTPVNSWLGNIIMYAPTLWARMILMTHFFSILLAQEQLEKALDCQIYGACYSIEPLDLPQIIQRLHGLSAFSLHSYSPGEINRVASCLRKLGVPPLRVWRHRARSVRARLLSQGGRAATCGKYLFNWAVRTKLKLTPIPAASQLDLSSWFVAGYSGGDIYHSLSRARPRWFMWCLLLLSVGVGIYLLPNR
Description: Inhibitory effect on an HCV RNA polymerase activity of the compounds of Synthetic Example 12, Synthetic Example 13, Synthetic Example 19, Synthetic Example 21 and Synthetic Example 22 described above was measured by the following process.
Expression and purification of HCV RNA polymerase were performed in accordance with known processes (V. Lohman et al., VIROLOGY, 249, 108-118, 1998).
The purified HCV RNA polymerase in an amount of 200 ng was mixed with 100 ng/mL poly(A)RNA (polyadenine RNA) as a template RNA and 25 ng/mL 15-mer oligo(U)RNA (oligouridine having 15 bases, TAKARA Shuzo) as a primer RNA in 50 μL of an aqueous solution containing 20 mM Tris-Cl (pH 7.5), 5 MM MgCl2, 25 mM KCl, 10 uM UTP (Uridine-triphosphate), 0.25 Ci/mL [α-^32P]UTP (Amersham, PB10203). Then, thereto was added the compound of Synthetic Example 12, Synthetic Example 13, Synthetic Example 19, Synthetic Example 21 or Synthetic Example 22, followed by an RNA synthetic reaction at 30° C. for 30 minutes.
After completing the reaction, RNA in the solution was absorbed on DE81 paper (Whattman). Then, [α-^32P]UTP which was not incorporated into the synthesized RNA was washed out with 0.5 M phosphate buffer, and the quantity of [α-^32P]UTP which was incorporated into the synthesized RNA on the DE81 paper was determined on a liquid scintillation counter.
Inhibitory potency of the compounds of Synthetic Example 12, Synthetic Example 13, Synthetic Example 19, Synthetic Example 21 and Synthetic Example 22 was represented by 50% inhibitory concentration when the negative control without HCV RNA polymerase was assumed as 0% while the positive control without the compound was assumed as 100%.

Hepatitis C Virus (HCV) = assay: Inhibitory effect on HCV proliferation in infected MT-2C cells (nested RT-PCR detection limit dilution of HCV genome); type: cell-based; details: for detection of HCV genome in diluted RT product: FIG. 2, negative control detected up to 10-fold or 30-fold dilution
Description: Inhibitory effect on HCV proliferation of the compounds of Synthetic Example 1, Synthetic Example 2, Synthetic Example 10 and Synthetic Example 11 described above was measured by the following process.
Measurement of anti HCV proliferation inhibitory activity was performed in accordance with a known process (Kato, N. et. al., Biochem. Biophs. Res. Commun. 206, 863-869, 1995).
(§1) MT-2C cells that are cells derived from human T cells (Kato, N. et. al., Biochem. Biophs. Res. Commun. 206, 863-869, 1995) were cultured in an RPMI 1640 medium (Gibco-BRL 11875-101) supplemented with FBS (Foetal Bovine Serum, Gibco-BRL10082-147) at 10%. Thus cultured MT-2C cells (1×10^6 cells) were suspended in 200 uL of an F-12 medium (Gibco-BRL 11059-029) added with EDTA (ethylenediamine tetraacetic acid) to yield final concentration of 5 mM. Thereto was added 20 μL of a serum derived from a hepatitis C patient, followed by infection at 37° C. for 2 hours. After the infection, the cells were washed three times with 1 mL of PBS (Phosphate buffered saline), suspended in 6 mL of an RPMI medium added with FBS at 10%. The suspended cells were seeded on a 48 well culture plate, and incubated in a CO2 incubator at 32° C. for 3 days.
Thereto was added the compound of Synthetic Example 1, Synthetic Example 2, Synthetic Example 10 or Synthetic Example 11 dissolved in DMSO (Dimethyl Sulfoxide) in an amount of thousandths of the medium, and the mixture was cultured for 3 days. A medium adjusted to have the same concentration of the identical compound was added to each well in a two-fold volume, followed by an additional culture for 4 days. Cells were harvested for each of the samples, and total cellular RNA was purified. For the RNA purification, ISOGEN (NIPPON GENE, 311-02501) was used. In order to quantitatively determine an HCV RNA genome in the purified RNA, the following operation was carried out.
Using 1 μg of the purified RNA, a reverse transcription reaction was performed in a total volume of 20 uL at 37° C. for 1 hour. Subsequently, an inactivation treatment of the reverse transcriptase was carried out at 100° C. for 30 minutes. SuperScript™ II (Gibco BRL 18064-014) was used as a reverse. transcriptase, and an oligoDNA (Gibco BRL) having 20 bases which are complementary to the sequence of base position 317 through base position 336 of HCV-J strain (Kato, N. et. al. Proc. Natl. Acad. Sci. USA 87, 9524-9528, 1990) was used as a primer.
Product of the reverse transcription reaction was diluted to 3-fold, 10-fold, 30-fold and 100-fold with sterilized and distilled water. First PCR (Polymerase Chain Reaction), (34 cycles of: at 94° C. for 1 minute, at 58° C. for 45 seconds and at 72° C. for 1 minute; and 1 cycle of: at 94° C. for 1 minute, at 58° C. for 1 minute and 40 seconds and at 72° C. for 8 minutes) was performed in a total volume of 50 μL using 3 μL of the diluted product of the reverse transcription reaction. EX-Taq (TAKARA RR001A) was used as a DNA synthetase, while an oligoDNA (GibcoBRL) having 20 bases which correspond to the sequence of base position 71 through base position 90 and an oligoDNA (Gibco BRL) having 20 bases which are complementary to the sequence of base position 317 through base position 336 of HCV-J strain were used as primers. […]

MT-2C cells = assay: Yield of total cellular RNA of HCV-infected MT-2C cells (cell injury); type: cell-based, human; details: 0.1-10 μM compound, 7 days culture
Description: as §1, with “days. Thereto was added the compound of Synthetic Example 1, Synthetic Example 2, Synthetic Example 10 or Synthetic Example 11 dissolved in DMSO (Dimethyl Sulfoxide) in an amount of thousandths of the medium, and the mixture was cultured for 3 days. A medium adjusted to have the same concentration of the identical compound was added to each well in a two-fold volume, followed by an additional culture for 4 days. Cells were harvested for each of the samples, and total cellular RNA was purified. For the RNA purification, ISOGEN (NIPPON GENE, 311-02501) was used. In order to quantitatively determine an HCV RNA genome in the purified RNA, the following operation was carried out.” for “days.”

hepatitis C = details: medical treatment of hepatitis C; cited from earlier work
[1] = tested on: proximate viruses of the hepatitis C virus (viruses having (+)-chain single stranded RNA in their genome); details: cited from earlier work

| Molecule | IC50 (HCV RNA polymerase) | yield of total RNA for each of the samples (injury on the cells) (MT-2C cells) | further results |
| --- | --- | --- | --- |
| O=c1ccn([C@@H]2O[C@H](COP(=O)(O)OP(=O)(O)OP(=O)(O)O)[C@@H](F)[C@H]2O)c(=O)[nH]1 [Synthetic Example 12, 3′-deoxy-3′-fluorouridine 5′-triphosphate] | 0.3 µM |  |  |
| O=c1[nH]c(=O)n([C@H]2O[C@@H](COP(=O)(O)OP(=O)(O)OP(=O)(O)O)[C@H](F)[C@@H]2O)cc1F [Synthetic Example 22, 1-(3′-deoxy-5,3′-fluoro-β-L-ribofuranosyl)uracil 5′-triphosphate] | 10 µM |  |  |
| O=c1ccn([C@@H]2O[C@H](COP(=O)(O)OP(=O)(O)OP(=O)(O)O)[C@@H](F)[C@H]2O)c(=S)[nH]1 [Synthetic Example 19, 3′-deoxy-3′-fluoro-2-thiouridine 5′-triphosphate] | 3 µM |  |  |
| O=c1ccn([C@H]2O[C@@H](COP(=O)(O)OP(=O)(O)OP(=O)(O)O)[C@H](F)[C@@H]2O)c(=O)[nH]1 [Synthetic Example 21, 1-(3′-deoxy-3′-fluoro-β-L-ribofuranosyl)uracil 5′-triphosphate] | 3 µM |  |  |
| O=c1[nH]c(=O)n([C@H]2O[C@@H](CO)[C@H](F)[C@@H]2O)cc1F [Synthetic Example 11, 1-(3′-deoxy-5,3′-difluoro-β-L-ribofuranosyl)uracil] |  | little or no alteration | detection of HCV genome in diluted RT product (Hepatitis C Virus (HCV); 1 μM added): could not be detected, except for one sample diluted to 10-fold; detection of HCV genome in diluted RT product (Hepatitis C Virus (HCV); 10 μM added): could not be detected, except for one sample diluted to 10-fold |
| O=c1[nH]c(=O)n([C@@H]2O[C@H](COP(=O)(O)OP(=O)(O)OP(=O)(O)O)[C@@H](F)[C@H]2O)cc1F [Synthetic Example 13, 3′-deoxy-5,3′-difluorouridine 5′-triphosphate] | 1 µM |  |  |
| interferon |  |  | efficacy (hepatitis C): not more than 30% |
| O=c1ccn([C@@H]2O[C@H](CO)[C@@H](F)[C@H]2O)c(=O)[nH]1 [Synthetic Example 1, 3′-deoxy-3′-fluorouridine] |  | little or no alteration | detection limit dilution (fold) of an HCV genome (Hepatitis C Virus (HCV); 1.0 μM added, FIG. 1, negative control detected up to 30-fold or 100-fold dilution): up to 3-fold or 10-fold; inhibitory activity on proximate viruses of the hepatitis C virus [1]: only a low inhibitory activity |
| O=c1[nH]c(=O)n([C@@H]2O[C@H](CO)[C@@H](F)[C@H]2O)cc1F [Synthetic Example 2, 3′-deoxy-5,3′-difluorouridine] |  | little or no alteration |  |
| O=c1ccn([C@H]2O[C@@H](CO)[C@H](F)[C@@H]2O)c(=O)[nH]1 [Synthetic Example 10, 1-(3′-deoxy-3′-fluoro-β-L-ribofuranosyl)uracil] |  | little or no alteration | detection of HCV genome in diluted RT product (Hepatitis C Virus (HCV); 1 μM added): could not be detected, except for one sample diluted to 10-fold; detection of HCV genome in diluted RT product (Hepatitis C Virus (HCV); 10 μM added): could not be detected, except for one sample diluted to 10-fold |
